From US11957680B2, “Pyruvate kinase activators for use in treating blood disorders” (Agios Pharmaceuticals, Inc., priority 2017, dated 2024)

Key:
[1] = target: PKR R510Q (Homo sapiens, UniProt P30613, R510Q); assay: PKR mutant assay (R510Q), AC50, LDH/NADH-coupled, absorbance at 340 nm; type: biochemical; settings: Table 2, enzyme assay; for AC50: read-out: PK R510Q AC50
Outline: (§1)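 LDH/NADH coupling; 40-400 ng/well enzyme; PEP 0.1-0.5 mM, ADP 0.2-1.65 mM, NADH 180 μM, LDH 0.5 units; Tris pH 7.5/KCl/MgCl2 buffer with DTT, BSA. 60 min RT compound preincubation, ADP start, A340 at RT. 11-point 3-fold series from 100 μM.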

[2] = target: PKR K410E (Homo sapiens, UniProt P30613, K410E); assay: PKR mutant assay (K410E), AC50, LDH/NADH-coupled, absorbance at 340 nm; type: biochemical; settings: Table 2; enzyme assay
Outline: as §1

[3] = target: T1, wild type PKR (Homo sapiens, UniProt P30613); assay: Cell based ATP assay in purified red blood cells (Cell-Titer-Glo); set-up: endogenous in cells; host or cells: purified red blood cells from healthy volunteers; settings: Table 2; RBCs, overnight at 37° C., ATP levels
Outline: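 ATP levels were quantified by Cell-Titer-Glo after overnight 37 °C exposure of cells to compound (1:4 dilution series, 0.1% DMSO final). The cells were human erythrocytes, filter-purified to remove leukocytes and plated at 1×10^7 cells/mL in AGAM medium.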

[4] = target: T1, wild type PKR; assay: PKR (wild type) enzyme AC50 assay, LDH/NADH-coupled, absorbance at 340 nm; type: biochemical; settings: Table 2; enzyme assay; read-out: PKR WT AC50
Outline: as §1

Sequence of PKR K410E (P30613 whole entry K410E): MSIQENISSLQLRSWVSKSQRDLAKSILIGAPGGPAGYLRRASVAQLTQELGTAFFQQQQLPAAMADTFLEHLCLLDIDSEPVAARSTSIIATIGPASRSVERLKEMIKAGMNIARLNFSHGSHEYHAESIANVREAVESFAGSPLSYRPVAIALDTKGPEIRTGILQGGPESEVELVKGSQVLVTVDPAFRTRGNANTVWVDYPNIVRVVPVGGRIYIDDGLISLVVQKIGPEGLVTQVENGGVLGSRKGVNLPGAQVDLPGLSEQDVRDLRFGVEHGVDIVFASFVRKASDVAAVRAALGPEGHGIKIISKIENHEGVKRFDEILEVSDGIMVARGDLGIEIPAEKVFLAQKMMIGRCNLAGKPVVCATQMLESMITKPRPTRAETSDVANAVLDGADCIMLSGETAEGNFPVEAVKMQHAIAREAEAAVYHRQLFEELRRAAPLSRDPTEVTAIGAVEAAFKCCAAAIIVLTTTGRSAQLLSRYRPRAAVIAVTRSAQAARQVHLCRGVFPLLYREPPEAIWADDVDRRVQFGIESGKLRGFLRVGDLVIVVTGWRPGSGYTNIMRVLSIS
Sequence of PKR R510Q (P30613 whole entry R510Q): as the sequence (P30613 whole entry K410E) above, with E410K, R510Q counted along it
T1 sequence (P30613 whole entry): as the sequence (P30613 whole entry K410E) above, with E410K counted along it

SMILES	AC50 [1]	AC50 [2]	AC50 [3]	AC50 [4]	PK R510Q AC50 [1]	Cell based ATP assay AC50 [3]
CC(c1ccccc1)c1nc2c(s1)c1cnn(Cc3cccc4[nH]ncc34)c(=O)c1n2C (stereo not drawn) [Compound 119]	< 300 nM	< 300 nM	≤ 1000 nM	< 300 nM	–	–
CC(c1ccccc1)c1nc2c(s1)c1cnn(Cc3cccc4c3cnn4C)c(=O)c1n2C (stereo not drawn) [Compound 120]	301 to 800 nM	301 to 800 nM	≤ 1000 nM	301 to 800 nM	–	–
Cn1c2nc(Cc3cc[nH]n3)sc2c2cnn(Cc3ccc4c(c3)OCCO4)c(=O)c21 [Compound 122]	< 300 nM	< 300 nM	≤ 1000 nM	< 300 nM	–	–
COc1ccc(Cn2ncc3c4sc(Cc5cc[nH]n5)nc4n(C)c3c2=O)cc1 [Compound 123]	< 300 nM	< 300 nM	≤ 1000 nM	< 300 nM	–	–
Cn1c2nc(C(C(N)=O)c3ccccc3)sc2c2cnn(Cc3cccc4[nH]ncc34)c(=O)c21 (stereo not drawn) [Compound 127]	< 300 nM	< 300 nM	≤ 1000 nM	< 300 nM	–	–
CSc1nc2c(s1)c1cnn(Cc3csc(-n4c(C)ccc4C)n3)c(=O)c1n2C [Compound 129]	> 800 nM	> 800 nM	> 1000 nM	> 800 nM	–	–
Cn1c2nc(C(c3cccc4[nH]ncc34)S(=O)(=O)c3ccccc3)sc2c2cnn(Cc3cccc4[nH]ncc34)c(=O)c21 (stereo not drawn) [Compound 133]	> 800 nM	> 800 nM	> 1000 nM	> 800 nM	–	–
COC(=O)C(c1ccccc1)c1nc2c(s1)c1cnn(Cc3cccc4[nH]ncc34)c(=O)c1n2C (stereo not drawn) [Compound 134]	301 to 800 nM	< 300 nM	> 1000 nM	> 800 nM	–	–
Cn1c2nc(C(N)c3ccccc3)sc2c2cnn(Cc3cccc4[nH]ncc34)c(=O)c21 (stereo not drawn) [Compound 136]	< 300 nM	< 300 nM	≤ 1000 nM	< 300 nM	–	–
CC(=O)NCc1nc2c(s1)c1cnn(Cc3cccc4[nH]ncc34)c(=O)c1n2C [Compound 139]	< 300 nM	< 300 nM	≤ 1000 nM	< 300 nM	–	–
Cn1c2nc(C3(c4ccccc4)CC3)sc2c2cnn(Cc3cccc4[nH]ncc34)c(=O)c21 [Compound 140]	> 800 nM	> 800 nM	> 1000 nM	> 800 nM	–	–
COc1cccc(Cn2ncc3c4sc(Cc5cc[nH]n5)nc4n(C)c3c2=O)c1 [Compound 144]	< 300 nM	< 300 nM	≤ 1000 nM	< 300 nM	–	–
Cn1c2nc(C#N)sc2c2cnn(Cc3csc(N)n3)c(=O)c21 [Compound 145]	> 800 nM	301 to 800 nM	> 1000 nM	301 to 800 nM	–	–
Cn1c2nc(C(N)=O)sc2c2cnn(Cc3csc(N)n3)c(=O)c21 [Compound 146]	301 to 800 nM	< 300 nM	≤ 1000 nM	301 to 800 nM	–	–
Cn1c2nc(C#N)sc2c2cnn(Cc3cccc(N)n3)c(=O)c21 [Compound 147]	301 to 800 nM	< 300 nM	≤ 1000 nM	< 300 nM	–	–
Cn1c2nc(C(O)(C(N)=O)c3ccccc3)sc2c2cnn(Cc3cccc4[nH]ncc34)c(=O)c21 (stereo not drawn) [Compound 152]	301 to 800 nM	< 300 nM	≤ 1000 nM	301 to 800 nM	–	–

Continued, values first:

AC50 [1]	AC50 [2]	AC50 [3]	AC50 [4]	PK R510Q AC50 [1]	Cell based ATP assay AC50 [3]	SMILES
301 to 800 nM	< 300 nM	> 1000 nM	< 300 nM	–	–	Cn1c2nc(C(O)c3ccccc3)sc2c2cnn(Cc3cccc4[nH]ncc34)c(=O)c21 (stereo not drawn) [Compound 117]
< 300 nM	< 300 nM	> 1000 nM	< 300 nM	–	–	Cn1c2nc(Cc3cccc(CO)c3)sc2c2cnn(Cc3cccc4[nH]ncc34)c(=O)c21 [Compound 118]
301 to 800 nM	> 800 nM	> 1000 nM	301 to 800 nM	–	–	Cn1c2nc(SCc3ccccc3)sc2c2cnn(Cc3cccc4[nH]ncc34)c(=O)c21 [Compound 121]
< 300 nM	< 300 nM	≤ 1000 nM	< 300 nM	–	–	Cn1c2nc(CCO)sc2c2cnn(Cc3cccc4[nH]ncc34)c(=O)c21 [Compound 124]
301 to 800 nM	> 800 nM	> 1000 nM	> 800 nM	–	–	CNCc1nc2c(s1)c1cnn(Cc3cccc4[nH]ncc34)c(=O)c1n2C [Compound 125]
< 300 nM	< 300 nM	≤ 1000 nM	< 300 nM	–	–	Cn1c2nc(C(C)(O)c3ccccc3)sc2c2cnn(Cc3cccc4[nH]ncc34)c(=O)c21 (stereo not drawn) [Compound 126]
301 to 800 nM	301 to 800 nM	> 1000 nM	< 300 nM	–	–	Cn1c2nc(S(=O)(=O)Cc3ccccc3)sc2c2cnn(Cc3cccc4[nH]ncc34)c(=O)c21 [Compound 128]
301 to 800 nM	> 800 nM	≤ 1000 nM	> 800 nM	–	–	Cn1c2nc(C(O)c3ccccn3)sc2c2cnn(Cc3cccc4[nH]ncc34)c(=O)c21 (stereo not drawn) [Compound 130]
< 300 nM	< 300 nM	> 1000 nM	301 to 800 nM	–	–	COC(=O)Cc1nc2c(s1)c1cnn(Cc3cccc4[nH]ncc34)c(=O)c1n2C [Compound 131]
301 to 800 nM	301 to 800 nM	> 1000 nM	> 800 nM	–	–	Cn1c2nc(CN)sc2c2cnn(Cc3cccc4[nH]ncc34)c(=O)c21 [Compound 132]
–	> 800 nM	–	> 800 nM	No Fit	No Fit	Cn1c2nc(Nc3ccccc3)sc2c2cnn(Cc3cccc4[nH]ncc34)c(=O)c21 [Compound 135]
< 300 nM	< 300 nM	> 1000 nM	301 to 800 nM	–	–	Cn1c2nc(CC(N)=O)sc2c2cnn(Cc3cccc4[nH]ncc34)c(=O)c21 [Compound 137]
301 to 800 nM	< 300 nM	> 1000 nM	301 to 800 nM	–	–	Cn1c2nc(C(=O)NO)sc2c2cnn(Cc3cccc4[nH]ncc34)c(=O)c21 [Compound 138]
< 300 nM	< 300 nM	≤ 1000 nM	< 300 nM	–	–	Cn1c2nc(S(N)(=O)=O)sc2c2cnn(Cc3cccc4[nH]ncc34)c(=O)c21 [Compound 141]
301 to 800 nM	< 300 nM	≤ 1000 nM	< 300 nM	–	–	Cn1c2nc(CNS(C)(=O)=O)sc2c2cnn(Cc3cccc4[nH]ncc34)c(=O)c21 [Compound 142]
< 300 nM	< 300 nM	> 1000 nM	< 300 nM	–	–	Cn1c2nc(Cc3cccc4[nH]ncc34)sc2c2cnn(Cc3cccc4[nH]ncc34)c(=O)c21 [Compound 143]
< 300 nM	< 300 nM	≤ 1000 nM	< 300 nM	–	–	Cn1c2nc(C(O)c3cc[nH]n3)sc2c2cnn(Cc3cccc4[nH]ncc34)c(=O)c21 (stereo not drawn) [Compound 148]
301 to 800 nM	301 to 800 nM	> 1000 nM	301 to 800 nM	–	–	Cn1c2nc(NCc3ccccc3)sc2c2cnn(Cc3cccc4[nH]ncc34)c(=O)c21 [Compound 149]
> 800 nM	> 800 nM	> 1000 nM	> 800 nM	–	–	Cn1c2nc(Cc3ccc(Cl)nc3)sc2c2cnn(Cc3cccc4[nH]ncc34)c(=O)c21 [Compound 150]
< 300 nM	< 300 nM	≤ 1000 nM	< 300 nM	–	–	Cn1c2nc(Cc3ccccn3)sc2c2cnn(Cc3cccc4[nH]ncc34)c(=O)c21 [Compound 151]
